Key:
[1] = frontal affinity chromatography (FAC), association constant to PA sugar chains having other L-fucose; type: binding; conditions: for association constant Ka: 25 degrees C.; for binding to non-L-fucose α1→6 sugar chain: FAC
Protocol: The following section will describe a method of calculating an association constant by frontal affinity chromatography (FAC). This method is based on the following principle. […] Then, the elution front end (front) is observed immediately. When there is an affinity with lectin, the elution of the sugar chain is delayed.
The preparation of a lectin column used in the apparatus is performed in the method as described below. 1. Purified lectin is dissolved in 0.1 to 0.2M of NaHCO3 buffer solution (pH 8.3 to 8.5). 2. The lectin is immobilized, via a lectin primary amino group, a carrier such as NHS activated sepharose. 3. Then, the lectin is blocked by Tris buffer solution including primary amine or ethanolamine for example. 4. Lectin-sepharose is suspended in 10 mM Tris buffer, including 0.8% of NaCl (pH 7.4, TBS). Then, lectin immobilized resin is filled in a miniature column (φ2 mm×10 mm, 31.4 μl). 5. The miniature column in which the lectin immobilized resin is filled is protected by a holder and the lectin column is connected to an FAC automatic analysis apparatus (FAC-1, SHIMADZU CORPORATION).
Then, the elution of the PA sugar chain from the column is detected by a fluorescence detector (excitation wavelength/fluorescence wavelength: 310 nm/380 nm).
Based on the detection data, by using the elution front end (Vo) of the sugar chain (PA rhamnose) not interacting with lectin as a reference, the delay (V−Vo) of the elution front end (V) of a sugar chain interacting with lectin is calculated as an interaction strength. Then, based on the following FAC criteria expressions, the association constant (Ka) between the sugar chain and lectin is calculated based on V−Vo and Bt. If the interaction strength (V−Vo value) and the association constant are higher, a higher affinity is caused between lectin and an L-fucose α1→6 sugar chain.
[In the formula, A means substance used for the elution, Ao means the initial concentration of the substance A, B means a immobilized ligand, V means the elution volume, Vo means the elution front end volume of the substance not interacting with the immobilized ligand B at all, Bt means an effective ligand amount, Kd means a dissociation constant (an inverse of the association constant)].
Pyridylaminated (PA) sugar chains shown in FIG. 1 and FIG. 2 were used to frontal affinity chromatography (FAC) analysis. PA sugars were purchased from TAKARA BIO INC., SEIKAGAKU BIOBUSINESS CORPORATION, and Masuda Chemical Industries co., LTD. PA sugar were also obtained by pyridylaminating, by GlycoTAG®(TAKARA BIO INC.), an unlabeled sugar chain or a sugar chain obtained by subjecting a sugar chain to enzyme digestion for example.
Lectin was dissolved in 0.2 M NaHCO3 buffer solution (pH 8.3) including 0.5 M NaCl and coupled to the NHS-activated sepharose (GE Healthcare Bioscience) by following the manufacturer's instructions. Then, lectin immobilized sepharose was suspended in 10 mM Tris buffer (pH 7.4, TBS) including […] and the resultant matter was filled in a miniature column (φ2 mm×10 mm, 31.4 μl).
Frontal affinity chromatography was performed using FAC automatic analysis apparatus (FAC-1, SHIMADZU CORPORATION). In particular, the above-prepared lectin column was inserted to a stainless steel holder and the holder was connected to FAC-1 apparatus. The flow rate and the column temperature were maintained at 0.125 ml/min and 25 degrees C., respectively. After the miniature column was equilibrated by the TBS, an excessive volume (0.5 ml to 4 ml) of a PA sugar chain (3.75 nM or 7.5 nM) was continuously inputted to the column using an automatic sampling apparatus.
The fluorescent strength of the eluate of the PA sugar (excitation wavelength of 310 nm and fluorescence wavelength of 380 nm) was monitored to measure the interaction strength [a difference of the front end eluate to the standard oligosaccharide (PA rhamnose): V−V0]. […]

glycoproteins = test: hemagglutinating inhibition test with glycoproteins (sugar binding specificity); type: cell-based
Excerpt: The sugar binding specificity of lectin also can be confirmed by using erythrocytes that can be specifically agglutinated by the lectin to investigate the sugar type that may inhibit the agglutination of the erythrocytes and the concentration thereof.
Various monosaccharides, oligosaccharides, and polysaccharides shown in Table 2 and glycoproteins shown in Table 3 were subjected to hemagglutinating inhibition test to evaluate PTL of Example 1 and the SRL of Example 2 with regard to the sugar binding specificity.
On a 96 well U-bottom microtiter plate, double dilution series of 10 μl of monosaccharide, oligosaccharide, polysaccharide, and glycoprotein solutions were prepared. Then, lectin solution adjusted in advance to have titer 4 was added in an amount of 10 μl to the respective wells. Then, the plate was subjected to a still-standing at a room temperature for one hour for sensitization. Then, 10 μl of 4%-red blood cell suspension was added to the respective wells and the plate was further subjected to a still-standing at a room temperature for one hour. […] The lowest concentration showing the inhibition was assumed as the minimum inhibition concentration. The lower the minimum inhibition concentration is, the higher the specificity to lectin is.
For comparison, the sugar binding specificity was evaluated using the following commercially-available lectins: Comparison Example 1: AAL (SEIKAGAKU BIOBUSINESS CORPORATION—J-OIL MILLS, Inc.), Comparison Example 2: AOL (TOKYO CHEMICAL INDUSTRY CO., LTD.—Gekkeikan Sake Company, Ltd.), Comparison Example 3: LCA (SEIKAGAKU BIOBUSINESS CORPORATION—J-OIL MILLS, Inc.), and Comparison Example 4: PSA (SEIKAGAKU BIOBUSINESS CORPORATION—J-OIL MILLS, Inc.).

[2] = Sugar chain No. 728 (as listed in Table 5/12)
[3] = inhibitor: Bovine blood serum albumin
[4] = inhibitor: Human immune globulin A
[5] = inhibitor: Human immune globulin G
[6] = inhibitor: α1-acidic glycoprotein

Row | Substance | association constant Ka ([1]; Sugar chain No. 419) | association constant Ka ([1]; Sugar chain No. 420) | association constant Ka ([1]; Sugar chain No. 718) | association constant Ka ([1]; Sugar chain No. 719) | association constant Ka ([1]; Sugar chain No. 720) | association constant Ka ([1]; Sugar chain No. 721) | association constant Ka ([1]; Sugar chain No. 722) | association constant Ka ([1]; Sugar chain No. 723) | association constant Ka ([1]; Sugar chain No. 726) | association constant Ka ([1]; Sugar chain No. 727) | association constant Ka [1, 2] | association constant Ka ([1]; Sugar chain No. 729) | association constant Ka ([1]; Sugar chain No. 730) | association constant Ka ([1]; Sugar chain No. 731) | association constant Ka ([1]; Sugar chain No. 739) | association constant Ka ([1]; Sugar chain No. 909) | association constant Ka ([1]; Sugar chain No. 910) | association constant Ka ([1]; Sugar chain No. 931) | association constant Ka ([1]; Sugar chain No. 932) | association constant Ka ([1]; Sugar chain No. 933) | other results
1 | Aspergillus oryzae lectin [AOL, reference compound] | <1000 M⁻¹ | <1000 M⁻¹ | 170000 M⁻¹ | <1000 M⁻¹ | <1000 M⁻¹ | <1000 M⁻¹ | 56000 M⁻¹ | <1000 M⁻¹ | <1000 M⁻¹ | 76000 M⁻¹ | 12000 M⁻¹ | <1000 M⁻¹ | <1000 M⁻¹ | <1000 M⁻¹ | <1000 M⁻¹ | 44000 M⁻¹ | 56000 M⁻¹ | 99000 M⁻¹ | <1000 M⁻¹ | 31000 M⁻¹ | minimum inhibition concentration of hemagglutination (glycoproteins; inhibitor: Asialofetuin): >250 μl/ml; minimum inhibition concentration of hemagglutination (glycoproteins; inhibitor: Asialomucin (pig)): 62.5 μl/ml; minimum inhibition concentration of hemagglutination (glycoproteins; [3]): >250 μl/ml; minimum inhibition concentration of hemagglutination (glycoproteins; inhibitor: Casein): >250 μl/ml; minimum inhibition concentration of hemagglutination (glycoproteins; inhibitor: Fetuin): >250 μl/ml; minimum inhibition concentration of hemagglutination (glycoproteins; [4]): >250 μl/ml; minimum inhibition concentration of hemagglutination (glycoproteins; [5]): >250 μl/ml; minimum inhibition concentration of hemagglutination (glycoproteins; inhibitor: Lactoferrin): >250 μl/ml; minimum inhibition concentration of hemagglutination (glycoproteins; inhibitor: Mucin (bovine)): >250 μl/ml; minimum inhibition concentration of hemagglutination (glycoproteins; inhibitor: Mucin (pig)): 62.5 μl/ml; minimum inhibition concentration of hemagglutination (glycoproteins; inhibitor: Ribonuclease): >250 μl/ml; minimum inhibition concentration of hemagglutination (glycoproteins; inhibitor: Thyroglobulin): >250 μl/ml; minimum inhibition concentration of hemagglutination (glycoproteins; inhibitor: Transferrin): >250 μl/ml; minimum inhibition concentration of hemagglutination (glycoproteins; [6]): >250 μl/ml
2 | Pholiota terrestris lectin [PTL, novel L-fucose α1→6 specific lectin purified from the mushroom Pholiota terrestris] | <1000 M⁻¹ | <1000 M⁻¹ | <1000 M⁻¹ | <1000 M⁻¹ | <1000 M⁻¹ | <1000 M⁻¹ | <1000 M⁻¹ | <1000 M⁻¹ | <1000 M⁻¹ | <1000 M⁻¹ | <1000 M⁻¹ | <1000 M⁻¹ | <1000 M⁻¹ | <1000 M⁻¹ | <1000 M⁻¹ | <1000 M⁻¹ | <1000 M⁻¹ | <1000 M⁻¹ | <1000 M⁻¹ | <1000 M⁻¹ | binding to non-L-fucose α1→6 sugar chain [1]: not bound; minimum inhibition concentration of hemagglutination (glycoproteins; inhibitor: Asialofetuin): >250 μl/ml; minimum inhibition concentration of hemagglutination (glycoproteins; inhibitor: Asialomucin (pig)): >250 μl/ml; minimum inhibition concentration of hemagglutination (glycoproteins; [3]): >250 μl/ml; minimum inhibition concentration of hemagglutination (glycoproteins; inhibitor: Casein): >250 μl/ml; minimum inhibition concentration of hemagglutination (glycoproteins; inhibitor: Fetuin): >250 μl/ml; minimum inhibition concentration of hemagglutination (glycoproteins; [4]): >250 μl/ml; minimum inhibition concentration of hemagglutination (glycoproteins; [5]): >250 μl/ml; minimum inhibition concentration of hemagglutination (glycoproteins; inhibitor: Lactoferrin): >250 μl/ml; minimum inhibition concentration of hemagglutination (glycoproteins; inhibitor: Mucin (bovine)): >250 μl/ml; minimum inhibition concentration of hemagglutination (glycoproteins; inhibitor: Mucin (pig)): >250 μl/ml; minimum inhibition concentration of hemagglutination (glycoproteins; inhibitor: Ribonuclease): >250 μl/ml; minimum inhibition concentration of hemagglutination (glycoproteins; inhibitor: Thyroglobulin): 250 μl/ml; minimum inhibition concentration of hemagglutination (glycoproteins; inhibitor: Transferrin): >250 μl/ml; minimum inhibition concentration of hemagglutination (glycoproteins; [6]): >250 μl/ml
3 | Stropharia rugosoannulata lectin [SRL, novel L-fucose α1→6 specific lectin purified from the mushroom Stropharia rugosoannulata] | <1000 M⁻¹ | <1000 M⁻¹ | <1000 M⁻¹ | <1000 M⁻¹ | <1000 M⁻¹ | <1000 M⁻¹ | <1000 M⁻¹ | <1000 M⁻¹ | <1000 M⁻¹ | <1000 M⁻¹ | <1000 M⁻¹ | <1000 M⁻¹ | <1000 M⁻¹ | <1000 M⁻¹ | <1000 M⁻¹ | <1000 M⁻¹ | <1000 M⁻¹ | <1000 M⁻¹ | <1000 M⁻¹ | <1000 M⁻¹ | binding to non-L-fucose α1→6 sugar chain [1]: not bound; minimum inhibition concentration of hemagglutination (glycoproteins; inhibitor: Asialofetuin): >250 μl/ml; minimum inhibition concentration of hemagglutination (glycoproteins; inhibitor: Asialomucin (pig)): >250 μl/ml; minimum inhibition concentration of hemagglutination (glycoproteins; [3]): >250 μl/ml; minimum inhibition concentration of hemagglutination (glycoproteins; inhibitor: Casein): >250 μl/ml; minimum inhibition concentration of hemagglutination (glycoproteins; inhibitor: Fetuin): >250 μl/ml; minimum inhibition concentration of hemagglutination (glycoproteins; [4]): >250 μl/ml; minimum inhibition concentration of hemagglutination (glycoproteins; [5]): >250 μl/ml; minimum inhibition concentration of hemagglutination (glycoproteins; inhibitor: Lactoferrin): >250 μl/ml; minimum inhibition concentration of hemagglutination (glycoproteins; inhibitor: Mucin (bovine)): >250 μl/ml; minimum inhibition concentration of hemagglutination (glycoproteins; inhibitor: Mucin (pig)): >250 μl/ml; minimum inhibition concentration of hemagglutination (glycoproteins; inhibitor: Ribonuclease): >250 μl/ml; minimum inhibition concentration of hemagglutination (glycoproteins; inhibitor: Thyroglobulin): 250 μl/ml; minimum inhibition concentration of hemagglutination (glycoproteins; inhibitor: Transferrin): >250 μl/ml; minimum inhibition concentration of hemagglutination (glycoproteins; [6]): >250 μl/ml
